Measured values published in US20260234157A1, “COMPOUND AND METHOD FOR TARGETED DEGRADATION OF ANDROGEN RECEPTOR” (Gan & Lee Pharmaceuticals Co., Ltd., priority 2023, published 2026).
Substitutions are numbered along the chain they refer to. Like-named read-outs stand apart in the source and are kept apart here.

Tests used:
AR protein [1] = target: T1, AR protein (Homo sapiens, UniProt P10275, T878A); experiment: Degradation of AR protein in LNCaP cells (Western blot); format: cell-based; conditions: for inhibition at 0.01 µM: read-out: Degradation rates of the AR protein in LNCaP cells, 10 nM (%); for inhibition at 0.1 µM: read-out: Degradation rates of the AR protein in LNCaP cells, 100 nM (%)
T1 construct: degradation activity of the compounds disclosed in the present disclosure on AR protein in LNCaP cells; host or cells: LNCaP FGC
T1 sequence (P10275 1-920 T878A): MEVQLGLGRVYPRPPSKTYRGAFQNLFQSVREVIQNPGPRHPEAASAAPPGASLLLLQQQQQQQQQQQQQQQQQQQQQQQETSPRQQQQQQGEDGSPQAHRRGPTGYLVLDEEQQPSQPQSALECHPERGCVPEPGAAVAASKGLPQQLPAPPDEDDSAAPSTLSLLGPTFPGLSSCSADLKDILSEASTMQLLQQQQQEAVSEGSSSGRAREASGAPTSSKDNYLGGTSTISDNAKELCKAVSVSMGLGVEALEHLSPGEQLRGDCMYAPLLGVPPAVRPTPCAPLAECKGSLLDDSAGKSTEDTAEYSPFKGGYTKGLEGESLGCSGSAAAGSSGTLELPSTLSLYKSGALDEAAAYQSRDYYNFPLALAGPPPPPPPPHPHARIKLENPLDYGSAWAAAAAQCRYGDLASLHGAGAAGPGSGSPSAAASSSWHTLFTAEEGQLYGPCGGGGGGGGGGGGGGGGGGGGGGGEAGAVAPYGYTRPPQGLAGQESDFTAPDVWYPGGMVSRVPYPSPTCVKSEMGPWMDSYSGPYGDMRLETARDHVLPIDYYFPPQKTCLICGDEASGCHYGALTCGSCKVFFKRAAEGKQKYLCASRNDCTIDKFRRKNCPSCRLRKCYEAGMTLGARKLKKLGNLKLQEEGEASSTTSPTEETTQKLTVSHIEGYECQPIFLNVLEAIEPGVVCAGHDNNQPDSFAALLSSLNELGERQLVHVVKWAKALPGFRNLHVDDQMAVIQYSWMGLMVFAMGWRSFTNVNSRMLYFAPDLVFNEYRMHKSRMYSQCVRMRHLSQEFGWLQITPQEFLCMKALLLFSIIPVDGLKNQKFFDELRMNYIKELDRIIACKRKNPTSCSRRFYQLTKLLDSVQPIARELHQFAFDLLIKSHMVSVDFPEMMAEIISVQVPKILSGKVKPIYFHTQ
Procedure: The degradation activity of the compounds disclosed in the present disclosure on AR protein in LNCaP cells (cell source: ATCC)
(§1) Corresponding solvent controls were also set and cultured for 8 hours. After 8 hours of cultivation, the culture medium was removed and the cells were washed with PBS. RIPA lysis buffer containing 1% Protease Inhibitor Cocktail was added, and the total protein extract was obtained by lysis and centrifugation. The protein concentration in the extract was detected by BCA method. Protein electrophoresis was performed using SDS-PAGE, followed by transfer of the protein onto a PVDF (Millipore Sigma catalog No. PSRP010R5) membrane at 100V constant voltage for 60 minutes. The PVDF membrane was then placed in a 1×TBST solution with 5% milk and blocked at room temperature for 1 hour. […] The primary antibody solution was discarded and the PVDF membrane was washed three times with 1×TBST for 5 minutes/time. […] The secondary antibody solution was discarded and the PVDF membrane was washed three times with 1×TBST for 5 minutes/time. Western blot imaging was performed by using a dual color infrared laser imaging system (Licor catalog No. Odyssey CLX). Bands were analyzed in grayscale using Image Studio software. For each sample, GAPDH protein bands were detected as internal reference. The degradation rates of the AR protein for the compounds and the positive control sample were calculated based on grayscale of the protein bands.

AR protein [2] = target: T2, AR protein (Homo sapiens, UniProt P10275); experiment: Degradation of AR protein in VCaP cells (Western blot); format: cell-based; conditions: 8 hours; for inhibition at 0.01 µM: read-out: Degradation rate of the AR protein in VCaP cells, 10 nM (%); for inhibition at 0.1 µM: read-out: Degradation rate of the AR protein in VCaP cells, 100 nM (%)
T2 construct: degradation activity of the compounds disclosed in the present disclosure on AR protein in VCaP cells; host or cells: VCaP
T2 sequence (P10275 1-920): T1 sequence (P10275 1-920 T878A) with A878T
Procedure: The degradation activity of the compounds disclosed in the present disclosure on AR protein in VCaP cells (cell source: ATCC)
as §1

[3] = LNCaP cells, compound 10 nM, 8 hours, Western blot grayscale, GAPDH internal reference
[4] = LNCaP cells, compound 100 nM, 8 hours, Western blot grayscale, GAPDH internal reference

Row | Degradation rate of the AR protein in VCaP cells, 10 nM (%) (AR protein [2]; compound at 10 nM) | Degradation rate of the AR protein in VCaP cells, 100 nM (%) (AR protein [2]; compound at 100 nM) | SMILES | inhibition at 0.01 µM (AR protein [1]; [3]) [%] | inhibition at 0.1 µM (AR protein [1]; [4]) [%] | inhibition at 0.01 µM (AR protein [2]; compound at 10 nM) [%] | inhibition at 0.1 µM (AR protein [2]; compound at 100 nM) [%] | inhibition at 0.01 µM (AR protein [1]; LNCaP, 8 h) [%] | inhibition at 0.1 µM (AR protein [1]; LNCaP, 8 h) [%]
1 | – | – | N#Cc1ccc(O[C@H]2CC[C@H](NC(=O)c3ccc(N4CCC5(CCC(N6CCC7(CC6)COc6c7ccc7c6CN(C6CCC(=O)NC6=O)C7=O)CC5)CC4)nn3)CC2)cc1Cl (some centres unmarked) [Compound 137] | 68 | 21 | 80 | 90 | – | –
2 | – | – | N#Cc1ccc(O[C@H]2CC[C@H](NC(=O)c3ccc(N4CC(N5CCC6(CCc7cc8c(cc7O6)CN(C6CCC(=O)NC6=O)C8=O)CC5)C4)nn3)CC2)cc1Cl (some centres unmarked) [Compound 42] | – | – | 45 | 33 | 29 | 49
3 | – | – | N#Cc1ccc(O[C@H]2CC[C@H](NC(=O)c3ccc(N4CC(N5CCC6(CC5)Cc5cc7c(cc5O6)C(=O)N(C5CCC(=O)NC5=O)C7=O)C4)nn3)CC2)cc1Cl (some centres unmarked) [Compound 79] | – | – | 36 | 42 | 23 | 28
4 | – | – | COC1(CN2CC3(CCc4cc5c(cc4O3)C(=O)N(C3CCC(=O)NC3=O)C5)C2)CCN(c2ccc(C(=O)N[C@H]3CC[C@H](Oc4ccc(C#N)c(Cl)c4)CC3)nn2)CC1 (some centres unmarked) [Compound 9] | 56 | 66 | 87 | 82 | – | –
5 | – | – | CC1(CN2CCC3(CC2)COc2c3ccc3c2CN(C2CCC(=O)NC2=O)C3=O)CCN(c2ncc(C(=O)N[C@H]3CC[C@H](Oc4ccc(C#N)c(Cl)c4)CC3)cn2)CC1 (some centres unmarked) [Compound 193] | 18 | 31 | 21 | 78 | – | –
6 | – | – | N#Cc1ccc(O[C@H]2CC[C@H](NC(=O)c3cnc(N4CCC(F)(CN5CCC6(CC5)COc5c6ccc6c5CN(C5CCC(=O)NC5=O)C6=O)CC4)cn3)CC2)cc1Cl (some centres unmarked) [Compound 157] | 51 | 52 | 46 | 84 | – | –
7 | – | – | N#Cc1ccc(O[C@H]2CC[C@H](NC(=O)c3ccc(N4CCC(N5CCC6(CC5)COc5c6ccc6c5CN(C5CCC(=O)NC5=O)C6=O)CC4)nn3)CC2)cc1Cl (some centres unmarked) [Compound 169] | – | – | 79 | 82 | 75 | 53
8 | −14 | 38 | N#Cc1ccc(O[C@H]2CC[C@H](NC(=O)c3ccc(N4CC5(CC(N6CCC7(CC6)COc6c7ccc7c6C(=O)N(C6CCC(=O)NC6=O)C7=O)C5)C4)nn3)CC2)cc1Cl (some centres unmarked) [Compound 140] | – | – | – | – | – | –
9 | – | – | N#Cc1ccc(O[C@H]2CC[C@H](NC(=O)c3ccc(N4CCC(C#N)(CN5CCC6(CC5)COc5c6ccc6c5CN(C5CCC(=O)NC5=O)C6=O)CC4)nn3)CC2)cc1Cl (some centres unmarked) [Compound 156] | 52 | 53 | 37 | 75 | – | –
10 | – | – | N#Cc1ccc(O[C@H]2CC[C@H](NC(=O)c3cnc(N4CCC(F)(CN5CCC6(CC5)COc5c6ccc6c5CN(C5CCC(=O)NC5=O)C6=O)CC4)nc3)CC2)cc1Cl (some centres unmarked) [Compound 158] | 43 | 37 | 62 | 81 | – | –
11 | – | – | N#Cc1ccc(O[C@H]2CC[C@H](NC(=O)c3cnc(N4CCC5(CC4)COc4c5ccc5c4CN(C4CCC(=O)NC4=O)C5=O)nc3)CC2)cc1Cl (some centres unmarked) [Compound 201] | 6 | 32 | -11 | 32 | – | –
12 | – | – | N#Cc1ccc(O[C@H]2CC[C@H](NC(=O)c3ccc(N4CCC5(CC4)CC(N4CCC6(CC4)COc4c6ccc6c4CN(C4CCC(=O)NC4=O)C6=O)C5)nn3)CC2)cc1Cl (some centres unmarked) [Compound 184] | 79 | 41 | – | – | – | –
13 | – | – | COc1cc(O[C@H]2CC[C@H](NC(=O)c3ccc(N4CCC(C)(CN5CCC6(CC5)COc5c6ccc6c5C(=O)N(C5CCC(=O)NC5=O)C6=O)CC4)nn3)CC2)ccc1C#N (some centres unmarked) [Compound 180] | 12 | 53 | 29 | 73 | – | –
14 | – | – | N#Cc1ccc(O[C@H]2CC[C@H](NC(=O)c3ccc(N4CCC(CN5CCC6(CC5)COc5cc7c(cc5O6)CN(C5CCC(=O)NC5=O)C7=O)CC4)nn3)CC2)cc1Cl (some centres unmarked) [Compound 76] | 74 | 74 | 84 | 76 | – | –
15 | – | – | N#Cc1ccc(O[C@H]2CC[C@H](NC(=O)c3ccc(N4CCC5(CC4)CC(N4CCC6(CCc7cc8c(cc7O6)C(=O)N(C6CCC(=O)NC6=O)C8=O)CC4)C5)nn3)CC2)cc1Cl (some centres unmarked) [Compound 31] | 52 | 69 | 67 | 70 | – | –
16 | – | – | N#Cc1ccc(O[C@H]2CC[C@H](NC(=O)c3ccc(N4CCC5(CC4)CC(N4CCC6(CC4)COc4cc7c(cc46)C(=O)N(C4CCC(=O)NC4=O)C7=O)C5)nn3)CC2)cc1Cl (some centres unmarked) [Compound 47] | 54 | 67 | 82 | 79 | – | –
17 | – | – | N#Cc1ccc(O[C@H]2CC[C@H](NC(=O)c3ccc(N4CC5(CCC(N6CCC7(CC6)COc6c7ccc7c6CN(C6CCC(=O)NC6=O)C7=O)CC5)C4)nn3)CC2)cc1Cl (some centres unmarked) [Compound 168] | 70 | 26 | 76 | 77 | – | –
18 | – | – | N#Cc1ccc(O[C@H]2CC[C@H](NC(=O)c3ccc(N4CCC(CN5CCC6(CC5)Cc5cc7c(cc5O6)C(=O)N(C5CCC(=O)NC5=O)C7=O)CC4)nn3)CC2)cc1Cl (some centres unmarked) [Compound 78] | 67 | 70 | 72 | 57 | – | –
